Test results reported in PMC5693942 (Scientific Reports, 2017).
Values after ≈ are worked out from the molar mass of the structure shown. Where two headings read alike, the source gives them in different places.

Tests used:
Daphnia magna = Daphnia magna acute 48 h immobilization assay (Daphtoxkit);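 as to Average effect (N immobile, 5 daphnids per replicate): test concentrations in mg per L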; format: in vivo; conditions: for Average effect (N immobile, 5 daphnids per replicate): 48 h; for EC50: Daphnia magna, D. magna, this study, read-out: EC50_48h -immobilization
Procedure: Six concentration levels (5 concentrations plus control, four replicate beakers for each concentrations, five individual for each beaker) were tested. […] Each experiment was repeated in triplicate.

[1] = Activated sludge simulating microcosms (degradation of FL, formation of NFL); format: physicochemical
Procedure: Activated sludge microcosm experiments were conducted in the dark and aerobic conditions. Three microcosm bioreactors were investigated in duplicate. They were filled with 2 L of fresh activated sludge collected from a local wastewater treatment plant. […] Dark conditions were simulated by covering up the flask with foil. Aerobic conditions were obtained using air from BOC air cylinder and a thorough mixing was maintained using magnetic stirrers. The experiment was 24 hours long. […] Collected samples were subsequently frozen until their analysis to prevent degradation of compounds.
The compounds studied are characterized as having low volatility and therefore volatilization was not considered as a potential removal pathway in studied microcosms. Photodegradation was also not considered (not relevant) under tested activated sludge conditions. Therefore the two important degradation mechanisms to consider were biodegradation and sorption to sludge. […] However, in this study, sorption equilibrium was assumed and therefore sorption could be considered negligible. This is because sorption is assumed to be fast when compared to biological degradation.
Several reports utilized pseudo-first-order kinetics for degradation of micropollutants in activated sludge reactors[48]–[50]. […] Pseudo-first order biodegradation rate k1 [L g^−1h^−1]

[2] = River water simulating microcosms (degradation of FL)
Tetrahymena thermophila = assay: microbe, parasite or virus in culture; format: cell-based
Procedure: The tests were performed in accordance with the protocols provided by the manufacturer. […] The tests were carried out in disposable spectrophotometric cells of 1 cm path-length, to enable the measurement of the optical density (OD) at 440 nm. […] This change in OD over the time period is used to quantify the degree of inhibition and subsequent calculation of the EC50. Each concentration was repeated in duplicate.

[3] = in vivo; cited from earlier work
[4] = Tetrahymena thermophila, T. thermophila, this study, read-out: EC50_24h -growth
[5] = Tetrahymena thermophila, definitive test, read-out: 24hEC50
[6] = Tetrahymena thermophila, range test, read-out: 24hEC50

NCC[C@H](Oc1ccc(C(F)(F)F)cc1)c1ccccc1 [(S)-NFL]
Average effect (N immobile, 5 daphnids per replicate) (Daphnia magna; concentration 0.5): 0.25
Average effect (N immobile, 5 daphnids per replicate) (Daphnia magna; concentration 1.5): 1
Average effect (N immobile, 5 daphnids per replicate) (Daphnia magna; concentration 5): 4
Average effect (N immobile, 5 daphnids per replicate) (Daphnia magna; concentration 16): 5
Average effect (N immobile, 5 daphnids per replicate) (Daphnia magna; concentration 50): 5
EC50 (Daphnia magna): 2.8 mg/L (≈ 9.48 µM)
Concentration ([1]; 10 µg L-1 microcosm, time 0): 0.127 ± 0.015 ng/mL
Concentration ([1]; 10 µg L-1 microcosm, time 0.5): 0.057 ± 0.006 ng/mL
Concentration ([1]; 10 µg L-1 microcosm, time 1.5): 0.010 ± 0.000 ng/mL
Concentration ([1]; 10 µg L-1 microcosm, time 2): 0.151 ± 0.068 ng/mL
Concentration ([1]; 10 µg L-1 microcosm, time 3): 0.222 ± 0.038 ng/mL
Concentration ([1]; 10 µg L-1 microcosm, time 5): 0.384 ± 0.053 ng/mL
Concentration ([1]; 10 µg L-1 microcosm, time 8): 0.315 ± 0.016 ng/mL
Concentration ([1]; 10 µg L-1 microcosm, time 12): 0.562 ± 0.219 ng/mL
Concentration ([1]; 10 µg L-1 microcosm, time 24): 0.510 ± 0.059 ng/mL
Concentration ([1]; 100 µg L-1 microcosm, time 0): 0.553 ± 0.146 ng/mL
Concentration ([1]; 100 µg L-1 microcosm, time 0.5): 0.538 ± 0.149 ng/mL
Concentration ([1]; 100 µg L-1 microcosm, time 1): 0.737 ± 0.154 ng/mL
Concentration ([1]; 100 µg L-1 microcosm, time 1.5): 0.981 ± 0.052 ng/mL
Concentration ([1]; 100 µg L-1 microcosm, time 2): 1.890 ± 0.622 ng/mL
Concentration ([1]; 100 µg L-1 microcosm, time 3): 2.515 ± 1.049 ng/mL
Concentration ([1]; 100 µg L-1 microcosm, time 5): 3.535 ± 1.300 ng/mL
Concentration ([1]; 100 µg L-1 microcosm, time 8): 3.844 ± 1.117 ng/mL
Concentration ([1]; 100 µg L-1 microcosm, time 12): 5.346 ± 0.464 ng/mL
Concentration ([1]; 100 µg L-1 microcosm, time 24): 5.046 ± 0.415 ng/mL
Concentration ([2]; DBR (dark biotic), day 3): 0.001 ± 0.000 ng/mL
Concentration ([2]; DBR (dark biotic), day 5): 0.001 ± 0.000 ng/mL
Concentration ([2]; LAR (light abiotic), day 3): 0.002 ± 0.001 ng/mL
Concentration ([2]; LAR (light abiotic), day 4): 0.001 ± 0.000 ng/mL
Concentration ([2]; LAR (light abiotic), day 12): 0.002 ± 0.001 ng/mL
Concentration ([2]; LAR (light abiotic), day 16): 0.001 ± 0.000 ng/mL
Concentration ([2]; LBR (light biotic), day 3): 0.001 ± 0.000 ng/mL
Concentration ([2]; LBR (light biotic), day 5): 0.001 ± 0.000 ng/mL
times more toxic than (S)-FL (Tetrahymena thermophila; Tetrahymena thermophila): 10 ×
EC50 (Tetrahymena thermophila; [4]): 3.8 mg/L (≈ 12.9 µM)
EC50 (Tetrahymena thermophila; [5]): 4.48 mg/L (≈ 15.2 µM)
EC50 (Tetrahymena thermophila; [6]): 1.98 mg/L (≈ 6.71 µM)
% I (percentage inhibition) (Tetrahymena thermophila; definitive test, conc. 0.093): 7.356%
% I (percentage inhibition) (Tetrahymena thermophila; definitive test, conc. 0.279): 12.473%
% I (percentage inhibition) (Tetrahymena thermophila; definitive test, conc. 9.302): 28.891%
% I (percentage inhibition) (Tetrahymena thermophila; definitive test, conc. 15.352): 47.228%
% I (percentage inhibition) (Tetrahymena thermophila; definitive test, conc. 24.562): 80.171%
% I (percentage inhibition) (Tetrahymena thermophila; definitive test, conc. 50.660): 101.066%
% I (percentage inhibition) (Tetrahymena thermophila; definitive test, conc. 76.758): 104.371%
% I (percentage inhibition) (Tetrahymena thermophila; range test, conc. 0.005): 34.102%
% I (percentage inhibition) (Tetrahymena thermophila; range test, conc. 0.050): 7.524%
% I (percentage inhibition) (Tetrahymena thermophila; range test, conc. 0.500): 10.316%
% I (percentage inhibition) (Tetrahymena thermophila; range test, conc. 5.000): 39.684%
% I (percentage inhibition) (Tetrahymena thermophila; range test, conc. 50.000): 105.825%

NCC[C@@H](Oc1ccc(C(F)(F)F)cc1)c1ccccc1 [(R)-NFL, (R)-3-phenyl-3-[4-(trifluoromethyl)phenoxy]-1-propanamine]
Average effect (N immobile, 5 daphnids per replicate) (Daphnia magna; concentration 0.5): 0.25
Average effect (N immobile, 5 daphnids per replicate) (Daphnia magna; concentration 1.5): 0.5
Average effect (N immobile, 5 daphnids per replicate) (Daphnia magna; concentration 5): 4.25
Average effect (N immobile, 5 daphnids per replicate) (Daphnia magna; concentration 16): 5
Average effect (N immobile, 5 daphnids per replicate) (Daphnia magna; concentration 50): 5
EC50 (Daphnia magna): 2.9 mg/L (≈ 9.82 µM)
Concentration ([1]; 10 µg L-1 microcosm, time 0): 0.035 ± 0.009 ng/mL
Concentration ([1]; 10 µg L-1 microcosm, time 0.5): 0.029 ± 0.001 ng/mL
Concentration ([1]; 10 µg L-1 microcosm, time 1): 0.077 ± 0.004 ng/mL
Concentration ([1]; 10 µg L-1 microcosm, time 1.5): 0.012 ± 0.013 ng/mL
Concentration ([1]; 10 µg L-1 microcosm, time 2): 0.050 ± 0.011 ng/mL
Concentration ([1]; 10 µg L-1 microcosm, time 3): 0.043 ± 0.022 ng/mL
Concentration ([1]; 10 µg L-1 microcosm, time 5): 0.070 ± 0.016 ng/mL
Concentration ([1]; 10 µg L-1 microcosm, time 8): 0.055 ± 0.019 ng/mL
Concentration ([1]; 10 µg L-1 microcosm, time 12): 0.126 ± 0.035 ng/mL
Concentration ([1]; 10 µg L-1 microcosm, time 24): 0.182 ± 0.000 ng/mL
Concentration ([1]; 100 µg L-1 microcosm, time 0): 0.109 ± 0.023 ng/mL
Concentration ([1]; 100 µg L-1 microcosm, time 0.5): 0.132 ± 0.015 ng/mL
Concentration ([1]; 100 µg L-1 microcosm, time 1): 0.128 ± 0.038 ng/mL
Concentration ([1]; 100 µg L-1 microcosm, time 1.5): 0.146 ± 0.039 ng/mL
Concentration ([1]; 100 µg L-1 microcosm, time 2): 0.428 ± 0.019 ng/mL
Concentration ([1]; 100 µg L-1 microcosm, time 3): 0.429 ± 0.164 ng/mL
Concentration ([1]; 100 µg L-1 microcosm, time 5): 0.616 ± 0.227 ng/mL
Concentration ([1]; 100 µg L-1 microcosm, time 8): 0.710 ± 0.193 ng/mL
Concentration ([1]; 100 µg L-1 microcosm, time 12): 0.859 ± 0.069 ng/mL
Concentration ([1]; 100 µg L-1 microcosm, time 24): 1.302 ± 0.066 ng/mL
Concentration ([2]; DAR (dark abiotic), day 5): 0.002 ± 0.000 ng/mL
Concentration ([2]; DBR (dark biotic), day 1): 0.002 ± 0.001 ng/mL
Concentration ([2]; DBR (dark biotic), day 3): 0.002 ± 0.001 ng/mL
Concentration ([2]; DBR (dark biotic), day 5): 0.002 ± 0.001 ng/mL
Concentration ([2]; LAR (light abiotic), day 2): 0.001 ± 0.000 ng/mL
Concentration ([2]; LAR (light abiotic), day 3): 0.004 ± 0.001 ng/mL
Concentration ([2]; LAR (light abiotic), day 4): 0.003 ± 0.000 ng/mL
Concentration ([2]; LAR (light abiotic), day 5): 0.002 ± 0.001 ng/mL
Concentration ([2]; LAR (light abiotic), day 8): 0.001 ± 0.001 ng/mL
Concentration ([2]; LAR (light abiotic), day 9): 0.002 ± 0.001 ng/mL
Concentration ([2]; LAR (light abiotic), day 10): 0.002 ± 0.000 ng/mL
Concentration ([2]; LAR (light abiotic), day 11): 0.003 ± 0.000 ng/mL
Concentration ([2]; LAR (light abiotic), day 12): 0.003 ± 0.001 ng/mL
Concentration ([2]; LAR (light abiotic), day 15): 0.002 ± 0.001 ng/mL
Concentration ([2]; LAR (light abiotic), day 16): 0.004 ± 0.001 ng/mL
Concentration ([2]; LBR (light biotic), day 1): 0.001 ± 0.000 ng/mL
Concentration ([2]; LBR (light biotic), day 2): 0.002 ± 0.000 ng/mL
Concentration ([2]; LBR (light biotic), day 3): 0.002 ± 0.001 ng/mL
Concentration ([2]; LBR (light biotic), day 5): 0.003 ± 0.001 ng/mL
EC50 (Tetrahymena thermophila; [4]): 5.8 mg/L (≈ 19.6 µM)
EC50 (Tetrahymena thermophila; [5]): 5.84 mg/L (≈ 19.8 µM)
EC50 (Tetrahymena thermophila; [6]): 0.418 mg/L (≈ 1.42 µM)
% I (percentage inhibition) (Tetrahymena thermophila; definitive test, conc. 0.220): -4.385%
% I (percentage inhibition) (Tetrahymena thermophila; definitive test, conc. 0.661): -11.658%
% I (percentage inhibition) (Tetrahymena thermophila; definitive test, conc. 22.017): 92.941%
% I (percentage inhibition) (Tetrahymena thermophila; definitive test, conc. 35.941): 94.118%
% I (percentage inhibition) (Tetrahymena thermophila; definitive test, conc. 57.505): 94.332%
% I (percentage inhibition) (Tetrahymena thermophila; definitive test, conc. 118.604): 103.743%
% I (percentage inhibition) (Tetrahymena thermophila; definitive test, conc. 179.703): 104.492%
% I (percentage inhibition) (Tetrahymena thermophila; range test, conc. 0.005): 10.591%
% I (percentage inhibition) (Tetrahymena thermophila; range test, conc. 0.050): -7.266%
% I (percentage inhibition) (Tetrahymena thermophila; range test, conc. 0.500): 50.369%
% I (percentage inhibition) (Tetrahymena thermophila; range test, conc. 5.000): 101.108%
% I (percentage inhibition) (Tetrahymena thermophila; range test, conc. 50.000): 106.897%

FL glucuronide
excreted in the urine as this species [3]: 7.4%
